Measured values published in patent publication US20040067965A1, “Antiviral method of use” (priority 2001, published 2004).

What was measured:
[1] = in vitro; format: cell-based; conditions: human
[2] = system: HCMV strain AD169; assay: HCMV plaque reduction (inhibition of virus replication in cell culture); format: cell-based, human cytomegalovirus; conditions: for IC50: Human betaherpesvirus 5, MRC5, HCMV strain AD169, plaque formation, MRC-5 cells, read-out: IC50 = 50% Inhibitory Concentration of HCMV strain AD169 induced plaque formation in MRC-5 Cells
Source text: All materials required for this testing are commercially available. The testing method described is well documented in the literature, see, e.g. Colacino, J M and Lopez C., 1983, “Efficacy and selectivity of some nucleoside analogs as anti-human cytomegalovirus agents.” Antimicrob. Agents Chemother. 24:505-508; Colacino, J M and Lopez C., 1985, “Antiviral activity of 2′-deoxy-2′-fluoro-beta-D-arabinofuranosyl-5-iodocytosine against human cytomegalovirus in human skin fibroblasts.” Antimicrob. Agents Chemother. 28:252-258; and Mauldin, S C, Paget C J Jr., Jones C D, Colacino J M, Baxter A J, Staschke K A, Johansson N G, and Vrang L., 1998, “Synthesis and antiviral activity of prodrugs of the nucleoside 1-[2′,3′-dideoxy-3′-C-(hydroxymethyl)-beta-D-erythropentofuranosyl] cytosine.” Bioorg. Med Chem. 6:577-585.
Human fibroblast cells, foreskin or fetal lung cells, are infected with human cytomegalovirus. The cells are incubated with standard cell culture media containing no or increasing concentrations of ALIMTA. […] Additionally the yield of virus produced in the non-treated infected cell control cultures is compared to the yield of virus produced in the treated infected cell cultures.
The percent inhibition of virus replication can be determined and the concentration of molecule required to inhibit viral replication by 50% (IC50) and 90% (IC90) can be calculated using linear regression analysis.

SMILES | CC50 [1] | Comments (HCMV screening summary) ([2]; HCMV strain AD169 in MRC-5 cells) | IC50 [2] | TI (Therapeutic Index) = TC50/IC50 ([2]; TC50 (MRC-5) / IC50 (HCMV AD169 plaque formation), called selective index in text)
Nc1nc2[nH]cc(CCc3ccc(C(=O)N[C@@H](CCC(=O)[O-])C(=O)[O-])cc3)c2c(=O)[nH]1.[Na+].[Na+] [ALIMTA, disodium N-[4-[2-(2-amino-4,7-dihydro-4-oxo-3H-pyrrolo[2,3-d]-pyrimidin-5-yl)ethyl]benzoyl]-L-glutamic acid salt] | > 100 µM | High activity | 0.29 µM | >344.8
Nc1nc(O)c2ncn(COC(CO)CO)c2n1 [Ganciclovir] | > 100 µM |  | 6.37 µM | 
